Data from patent US11406707B2, “STAT3 phosphorylation during graft-versus-host disease” (H. LEE MOFFITT CANCER CENTER AND RESEARCH INSTITUTE, INC., priority 2014, dated 2022).

Experiments:
[1] = literature; cited from earlier work
[2] = test system: primed T-cells; experiment: Secondary alloMLR (3-day restimulation of primed T-cells) proliferation; type: cell-based, human; conditions: Homo sapiens, T-cell; rapamycin 10 ng/ml; read-out: inhibition of proliferation in comparison to DMSO
Source text: Bulk donor T-cells were allostimulated with cytokine-matured, allogeneic moDCs at a DC:T-cell ratio of 1:30 as previously described (Florida Blood Services) [Betts, B C, et al. (2011) Blood 118:5330-9; Betts, B C, et al. […] Betts, B C, et al. (2011) Blood 118:5340-3]. […] Lower doses of each drug were used in these experiments to mimic expected physiologic concentrations [Siddiquee, K, et al. (2007) Proceedings of the National Academy of Sciences of the United States of America 104:7391-6; Zeiser, R, et al. (2008) Blood 111:453-62], and to better detect potential synergistic activity with the combination of rapamycin and S3I-201. After 5 days of culture at […]-cell proliferation was measured by a colorimetric assay per the manufacturer's instructions (CellTiter 96 Aqueous One Solution Cell Proliferation Assay [MTS]; Promega, Madison, Wis. USA) [Betts, B C, et al. (2011) Blood 118:5330-9; Betts, B C, et al. […] Betts, B C, et al. (2011) Blood 118:5340-3]. Absorbance/optical density (OD) was analyzed at 490 nm. Secondary alloMLR: […] Following priming, the T-cells were then rested and re-cultured with fresh first-party moDCs (DC:T-cell ratio of 1:30). […] After 3 days, T-cell proliferation was measured by a colorimetric assay as described (Promega). T-cells alone and PHA-stimulated T-cells served as negative and positive controls, respectively, for both the primary and secondary alloMLRs.

[3] = test system: TH17 responses; conditions: neutralization of IL-6, literature; cited from earlier work
[4] = test system: DC-allosensitized T-cell proliferation; experiment: allo-MLR T-cell proliferation (colorimetric MTS assay, stimulation index); type: cell-based, human; conditions: CAS 285986-31-4 titration 0-100 μM, day 4
Description: Allo-MLRs consisted of T cells stimulated by cytokine-mature moDCs (DC:T-cell ratio 1:30, 1×10^5 T cells per 100 μl medium in a 96-well plate, 37° C.). […] The allogeneic moDC stimulators were matured with a cytokine cocktail and terminally differentiated, eliminating the need for irradiation [Betts, B. C., et al. (2011) Blood 118, 5330-5339]. T-cell proliferation was quantified by a colorimetric assay (CellTiter 96 AQueous One Solution Cell Proliferation Assay [MTS]; Promega, Madison, Wis.) on day 5, per the manufacturer's instructions, with absorbance quantified at 490 nm [Betts, B. C., et al. (2011) Blood 118, 5330-5339]. The stimulation index was calculated by dividing the OD of the allo-MLR by the OD of T cells alone. PHA-stimulated T cells served as a positive control. Identical allo-MLRs were cultured with CAS 285986-31-4, to determine the dose-response effect of STAT5 inhibition on allostimulated T-cell growth. For these initial experiments, the cultures were analyzed on day 4 because of the early rapid T-cell proliferation among the STAT5 inhibitor-treated wells. The stimulation index was determined as described.

[5] = test system: T cells; experiment: T-cell viability by Live/Dead staining in treated allo-MLRs; type: cell-based, human; conditions: CAS 285986-31-4 1 μM
Description: Fluorochrome-conjugated mouse anti-human mAbs included anti-CD3, -CD4, -CD8, -CD25, -CD45RO, -CD107a, -CD127, -Foxp3, -pSTAT3/pY705, -pSTAT5/pY694, -IFN-, and -IL-17A (BD Biosciences, San Jose, Calif. USA; eBioscience; San Diego, Calif., USA; Invitrogen; Carlsbad, Calif., USA). Viability was assessed by Live/Dead staining (Invitrogen). Live events were acquired on FACSCalibur or LSRII (BD Biosciences) flow cytometers (FlowJo software, ver. 7.6.4; TreeStar, Ashland, Oreg., USA). Gates were defined by appropriate isotype controls. Naive T-cell sorting was performed on the FACSVantageDiVa (BD Biosciences). Where indicated, CD4^+ T cells were purified by magnetic-bead negative selection (Miltenyi Biotec, Auburn, Calif., USA).

[6] = biological target: T1, STAT3 (Homo sapiens, UniProt P40763); experiment: STAT3 phosphorylation in CD4+ T cells of 5 day allo-MLRs without exogenous cytokine; type: cell-based; conditions: CAS 285986-31-4 1 μM, 5 day allo-MLR
T1 construct: endogenous in cells; host or cells: primary human T cells from healthy-donor PBMC, allostimulated by monocyte-derived dendritic cells
Description: (§1) No exogenous cytokine was added. DC-allosensitized T cells were harvested on day 5. […] The ratio of CD4^+, pSTAT5^Bright to CD4^+, pSTAT3^+ T cells was calculated by percentage of phosphorylation.

[7] = test system: STAT5; experiment: STAT5 phosphorylation in CD4+ T cells of 5 day allo-MLRs without exogenous cytokine; type: cell-based, human; conditions: CAS 285986-31-4 1 μM
Description: as §1

[8] = test system: iTregs and Tconvs; experiment: iTreg and Tconv expansion from DC-allostimulated naive CD4+ T cells; type: cell-based, human; conditions: CAS 285986-31-4 1 μM
Description: To evaluate iTreg development, naive CD4^+ cells were isolated from nylon-wool-eluted T cells by magnetic-bead selection (Miltenyi Biotec), based on the positive expression of CD4 and lack of CD45RO, CD25, or both. In addition, CD127 staining of the naive CD4^+ cells was performed after the purification, to ensure depletion of natural Tregs from the cell product. Negligible amounts of CD127^-, CD25^Bright nTregs were observed after magnetic-bead purification. […] The T cells were harvested and surface stained on day 5 for CD3, -4, -25, and -127, followed by fixation and permeabilization (eBioscience), and then intracellular staining for Foxp3 [Liu, W., et al. (2006) J. Exp. Med. 203, 1701-1711; […]., et al. (2006) J. Exp. Med. 203, 1693-1700]. Tregs were characterized by gating on the live cells expressing surface CD3^+, CD4^+, and absence of CD127, followed by expression of Foxp3 and CD25^bright [Liu, W., et al. (2006) J. Exp. Med. 203, 1701-1711; […]., et al. (2006) J. Exp. Med. 203, 1693-1700]. The absolute number of iTregs and Tconv (CD4^+ CD25^-) cells was obtained by timed acquisition. The ratio of iTreg:Tconv was calculated based on the absolute number of each T-cell population.

[9] = test system: Foxp3 TSDR; experiment: iTreg Foxp3 demethylation assay; type: cell-based, human; conditions: CAS 285986-31-4 1 μM
Source text: iTreg Foxp3 demethylation assay. […] (2013) J. Immunol. 190, 3180-3188; Miyao, T., et al. (2012) Immunity 36, 262-275]. The degree of Foxp3 TSDR demethylation among iTregs from DMSO-treated allo-MLRs, purified nTregs, and Tconvs served as the controls [[…]., et al. (2013) Blood 122(13):2251-61]. For these experiments, iTregs and nTregs were sorted to select the CD4^+ CD25^+ CD127^- population. PCR products were amplified by using methylation or demethylation specific TSDR forward and reverse primers from bisulphate-treated genomic DNA of sorted natural Tregs. DNA fragments were cloned into a pCR2.1-Topo vector (Life Technologies, Grand Island, N.Y., USA) and verified by DNA sequencing. The following TSDR primers and probes were used for PCR: methylation forward [NT] ID NO:1), reverse [NT] ID NO:2), and hydrolysis probe [NT] (SEQ ID NO:3); and demethylation forward [NT] ID NO:4), reverse [NT] ID NO:5), and hydrolysis probe [NT] ID NO:6). Standards were diluted at concentrations ranging from 2^7 to 2^3 plasmid copies of each methylation or demethylation TSDR. Genomic DNA was isolated by using the DNeasy Blood and Tissue kit (Qiagen, Valencia, Calif., USA) from sorted natural or expanded iTregs. Genomic DNA (200-500 ng) was treated with bisulfite from the EZ DNA Methylation-Gold Kit (Zymo Research, Irvine, Calif., USA). […]

T1 sequence (P40763 whole entry): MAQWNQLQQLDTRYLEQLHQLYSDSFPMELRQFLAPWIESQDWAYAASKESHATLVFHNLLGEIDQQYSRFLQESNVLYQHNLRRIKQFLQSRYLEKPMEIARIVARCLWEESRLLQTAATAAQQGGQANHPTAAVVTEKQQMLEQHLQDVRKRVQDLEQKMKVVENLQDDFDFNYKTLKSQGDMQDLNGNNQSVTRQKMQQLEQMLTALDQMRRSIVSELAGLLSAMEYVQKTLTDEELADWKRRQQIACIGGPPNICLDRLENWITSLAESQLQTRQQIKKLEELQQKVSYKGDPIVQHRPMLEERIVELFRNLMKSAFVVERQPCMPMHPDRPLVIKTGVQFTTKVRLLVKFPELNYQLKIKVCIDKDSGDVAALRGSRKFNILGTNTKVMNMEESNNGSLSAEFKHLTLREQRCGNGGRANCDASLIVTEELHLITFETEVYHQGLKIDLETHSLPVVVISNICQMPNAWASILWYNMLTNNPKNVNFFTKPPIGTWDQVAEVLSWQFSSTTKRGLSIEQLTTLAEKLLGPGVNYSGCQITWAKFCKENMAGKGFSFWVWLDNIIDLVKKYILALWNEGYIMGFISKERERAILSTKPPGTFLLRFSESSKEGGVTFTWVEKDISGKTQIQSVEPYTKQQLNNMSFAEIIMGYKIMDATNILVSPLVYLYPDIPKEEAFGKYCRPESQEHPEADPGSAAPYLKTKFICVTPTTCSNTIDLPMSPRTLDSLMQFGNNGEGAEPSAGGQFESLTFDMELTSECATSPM

Molecule: ustekinumab: monoclonal antibody targeting the p40-cytokines
- efficacy in refractory GVHD [1]: demonstrated efficacy

Molecule: CO[C@H]1C[C@@H]2CC[C@@H](C)[C@@](O)(O2)C(=O)C(=O)N2CCCC[C@H]2C(=O)O[C@H]([C@H](C)C[C@@H]2CC[C@@H](O)[C@H](OC)C2)CC(=O)[C@H](C)/C=C(\C)[C@@H](O)[C@@H](OC)C(=O)[C@H](C)C[C@H](C)/C=C/C=C/C=C/1C [rapamycin]
- inhibition at 0.01 µg/mL [2]: 69%

Molecule: tocilizumab: humanised IL-6 receptor-inhibiting monoclonal antibody
- reducing TH17 responses or enhancing Treg development [3]: insufficient

Molecule: O=C(N/N=C/c1coc2ccccc2c1=O)c1cccnc1 [CAS 285986-31-4]
- concentration achieving maximum allostimulated T-cell growth [4]: 1 µM
- toxic effects by viability staining [5]: no toxic effects
- STAT3 signaling [6]: maintained intact
- ratio of CD4+, pSTAT5Bright to CD4+, pSTAT3+ T cells [7]: significantly decreased
- CD4+, pSTAT5Bright population ([7]; 5 day allo-MLR): selectively impaired
- overall geometric MFI of CD4+ STAT5 phosphorylation ([7]; 5 day allo-MLR): did not affect
- allostimulated iTreg expansion [8]: significantly decreased
- iTreg:Tconv ratio compared with DMSO or STAT3 inhibitor [8]: significant reduction
- iTreg Foxp3 demethylation [9]: significant reduction
